In BindingDB's records for doi:10.1038/sj.bjp.0705908 (Abbott Laboratories, 2004):

Molecular target: T1, Calcium-activated potassium channel subunit beta (Sus scrofa, UniProt C0KY85)
T1 sequence (C0KY85 whole entry): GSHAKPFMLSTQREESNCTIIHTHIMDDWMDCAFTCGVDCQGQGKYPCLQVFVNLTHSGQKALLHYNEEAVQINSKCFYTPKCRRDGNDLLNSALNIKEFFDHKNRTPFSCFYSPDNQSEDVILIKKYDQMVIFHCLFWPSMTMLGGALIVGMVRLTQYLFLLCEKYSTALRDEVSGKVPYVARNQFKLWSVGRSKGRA

Ki: 10.7 nM
Compound: CCC(C)(C)NC(=NC#N)Nc1cccnc1 [NSC_43345]
